# Test results published in ChEMBL document CHEMBL1201861, “Genomics of Drug Sensitity in Cancer screening data, Wellcome Trust Sanger Institute”.
# Experiments:
# COLO-741 = experiment: cells; format: functional, cell-based; settings: Homo sapiens
# Description: SANGER: Inhibition of human COLO-741 cell growth in a cell viability assay.
# CP50-MEL-B = experiment: cells; format: functional, cell-based; settings: Homo sapiens;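 note: growth inhibition of the human cell line, measured with a cell viability read-out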
# Description: SANGER: Inhibition of human CP50-MEL-B cell growth in a cell viability assay.
# Calu-3 = experiment: cells; format: functional, cell-based; settings: Homo sapiens;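 note: growth inhibition of human Calu-3 cells, determined with a cell viability assay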
# Description: SANGER: Inhibition of human Calu-3 cell growth in a cell viability assay.
# DMS-153 = experiment: cells; format: functional, cell-based, Homo sapiens; settings: Homo sapiens, DMS-153
# Description: SANGER: Inhibition of human DMS-153 cell growth in a cell viability assay.
# Detroit 562 = experiment: cells; format: functional, cell-based; settings: Homo sapiens;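 note: growth inhibition of human Detroit 562 cells, read out by a cell viability assay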
# Description: SANGER: Inhibition of human Detroit562 cell growth in a cell viability assay.
# EFO-21 = experiment: cells; format: functional, cell-based; settings: Homo sapiens;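 note: growth inhibition of EFO-21 cells measured with a viability assay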
# Description: SANGER: Inhibition of human EFO-21 cell growth in a cell viability assay.
# G-361 = experiment: cells; format: functional, cell-based; settings: Homo sapiens
# HCC1954 = experiment: cells; format: functional, cell-based; settings: Homo sapiens;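 note: growth inhibition of human HCC1954 cells, read out with a cell viability assay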
# Description: SANGER: Inhibition of human HCC1954 cell growth in a cell viability assay.
# HOP-92 = experiment: cells; format: functional, cell-based; settings: Homo sapiens;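 note: cell viability readout, with IC50 reflecting inhibition of HOP-92 cell growth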
# Description: SANGER: Inhibition of human HOP-92 cell growth in a cell viability assay.
# HuTu80 = experiment: cells; format: functional, cell-based, Homo sapiens, HUTU-80; settings: Homo sapiens, HuTu80;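 note: growth inhibition of HuTu80 human cells, determined with a cell viability readout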
# Description: SANGER: Inhibition of human HUTU-80 cell growth in a cell viability assay.
# HuO-3N1 = experiment: cells; format: functional, cell-based; settings: Homo sapiens;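 note: cell viability readout used to measure how strongly compounds suppress proliferation of human HuO-3N1 cells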
# Description: SANGER: Inhibition of human HuO-3N1 cell growth in a cell viability assay.
# HuP-T3 = experiment: cells; format: functional, cell-based; settings: Homo sapiens;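 note: HuP-T3 cell growth inhibition, read out with a cell viability assay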
# Description: SANGER: Inhibition of human HuP-T3 cell growth in a cell viability assay.
# KARPAS-422 = experiment: cells; format: functional, cell-based, Homo sapiens; settings: Homo sapiens, KARPAS-422
# Description: SANGER: Inhibition of human KARPAS-422 cell growth in a cell viability assay.
# KMS-12-PE = experiment: cells; format: functional, cell-based, Homo sapiens; settings: Homo sapiens, KMS-12-PE;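 note: growth inhibition of human KMS-12-PE cells, measured with a cell viability assay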
# Description: SANGER: Inhibition of human KMS-12-PE cell growth in a cell viability assay.
# KYSE-410 = experiment: cells; format: functional, cell-based; settings: Homo sapiens;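 note: growth inhibition of KYSE-410 cells, measured through a cell viability readout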
# Description: SANGER: Inhibition of human KYSE-410 cell growth in a cell viability assay.
# LN-405 = experiment: cells; format: functional, cell-based; settings: Homo sapiens
# Description: SANGER: Inhibition of human LN-405 cell growth in a cell viability assay.
# MC-IXC = experiment: cells; format: functional, cell-based; settings: Homo sapiens;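 note: growth inhibition of MC-IXC cells, read out with a cell viability assay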
# Description: SANGER: Inhibition of human MC-IXC cell growth in a cell viability assay.
# MDA-MB-157 = experiment: cells; format: functional, cell-based; settings: Homo sapiens
# Description: SANGER: Inhibition of human MDA-MB-157 cell growth in a cell viability assay.
# ME-180 = experiment: cells; format: functional, cell-based; settings: Homo sapiens;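 note: cell viability assay measuring growth inhibition of ME-180 cells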
# Description: SANGER: Inhibition of human ME-180 cell growth in a cell viability assay.
# MEL-HO = experiment: cells; format: functional, cell-based; settings: Homo sapiens
# Description: SANGER: Inhibition of human MEL-HO cell growth in a cell viability assay.
# MEL-JUSO = experiment: cells; format: functional, cell-based; settings: Homo sapiens;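 note: growth inhibition of human MEL-JUSO cells, read out with a cell viability assay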
# Description: SANGER: Inhibition of human MEL-JUSO cell growth in a cell viability assay.
# MHH-CALL-2 = experiment: cells; format: functional, cell-based, Homo sapiens; settings: Homo sapiens, MHH-CALL-2;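 note: growth inhibition of the cell line, read out in a cell viability assay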
# Description: SANGER: Inhibition of human MHH-CALL-2 cell growth in a cell viability assay.
# MKN-28 = experiment: cells; format: functional, cell-based; settings: Homo sapiens;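 note: cell viability assay read-out, IC50 reflects suppression of growth of human MKN-28 cells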
# Description: SANGER: Inhibition of human MKN28 cell growth in a cell viability assay.
# MKN-7 = experiment: cells; format: functional, cell-based; settings: Homo sapiens;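 note: growth inhibition of MKN-7 cells, read out with a cell viability assay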
# Description: SANGER: Inhibition of human MKN7 cell growth in a cell viability assay.
# MRK-nu-1 = experiment: cells; format: functional, cell-based, Homo sapiens; settings: Homo sapiens, MRK-nu-1;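 note: cell viability assay measuring growth suppression of human MRK-nu-1 cells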
# Description: SANGER: Inhibition of human MRK-nu-1 cell growth in a cell viability assay.
# NCI-H2009 = experiment: cells; format: functional, cell-based; settings: Homo sapiens;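 note: cell viability assay measuring inhibition of NCI-H2009 cell growth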
# Description: SANGER: Inhibition of human NCI-H2009 cell growth in a cell viability assay.
# NCI-H2405 = experiment: cells; format: functional, cell-based; settings: Homo sapiens;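 note: growth inhibition of the human cell line, read out with a cell viability assay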
# Description: SANGER: Inhibition of human NCI-H2405 cell growth in a cell viability assay.
# NCI-H748 = experiment: cells; format: functional, cell-based, Homo sapiens; settings: Homo sapiens, NCI-H748;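 note: growth inhibition of NCI-H748 cells, measured by a cell viability assay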
# Description: SANGER: Inhibition of human NCI-H748 cell growth in a cell viability assay.
# NCI-H810 = experiment: cells; format: functional, cell-based; settings: Homo sapiens;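 note: IC50 reflects inhibition of cancer cell line growth, read out with a cell viability assay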
# Description: SANGER: Inhibition of human NCI-H810 cell growth in a cell viability assay.
# P31-FUJ = experiment: cells; format: functional, cell-based, Homo sapiens; settings: Homo sapiens, P31-FUJ;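 note: growth inhibition of P31-FUJ cells, read out with a viability assay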
# Description: SANGER: Inhibition of human P31-FUJ cell growth in a cell viability assay.
# PANC-03-27 = experiment: cells; format: functional, cell-based; settings: Homo sapiens
# Description: SANGER: Inhibition of human PANC-03-27 cell growth in a cell viability assay.
# Panc1005 = experiment: cells; format: functional, cell-based; settings: Homo sapiens;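 note: growth inhibition of human PANC-10-05 cells, measured by a cell viability assay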
# Description: SANGER: Inhibition of human PANC-10-05 cell growth in a cell viability assay.
# RO82-W-1 = experiment: cells; format: functional, cell-based; settings: Homo sapiens;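 note: growth inhibition of human RO82-W-1 cells, measured with a cell viability assay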
# Description: SANGER: Inhibition of human RO82-W-1 cell growth in a cell viability assay.
# RPMI-6666 = experiment: cells; format: functional, cell-based, Homo sapiens; settings: Homo sapiens, RPMI-6666
# Description: SANGER: Inhibition of human RPMI-6666 cell growth in a cell viability assay.
# SBC-5 = experiment: cells; format: functional, cell-based; settings: Homo sapiens;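 note: cell viability assay read-out, IC50 is the concentration that inhibits growth of the cells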
# Description: SANGER: Inhibition of human SBC-5 cell growth in a cell viability assay.
# SCC-4 = experiment: cells; format: functional, cell-based; settings: Homo sapiens;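 note: growth inhibition of human SCC-4 cells, read out as cell viability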
# Description: SANGER: Inhibition of human SCC-4 cell growth in a cell viability assay.
# SN12C = experiment: cells; format: functional, cell-based; settings: Homo sapiens;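 note: growth inhibition of human SN12C cells, measured by a cell viability assay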
# Description: SANGER: Inhibition of human SN12C cell growth in a cell viability assay.
# SW48 = experiment: cells; format: functional, cell-based; settings: Homo sapiens;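 note: growth inhibition of SW48 cells, read out with a cell viability assay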
# Description: SANGER: Inhibition of human SW48 cell growth in a cell viability assay.
# SiHa = experiment: cells; format: functional, cell-based; settings: Homo sapiens;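 note: Viability-based readout of growth inhibition in SiHa cells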
# Description: SANGER: Inhibition of human SiHa cell growth in a cell viability assay.
# T-24 = experiment: cells; format: functional, cell-based; settings: Homo sapiens;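 note: growth inhibition of T-24 cells, read out with a cell viability assay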
# Description: SANGER: Inhibition of human T-24 cell growth in a cell viability assay.
# TALL-1 = experiment: cells; format: functional, cell-based, Homo sapiens; settings: Homo sapiens, TALL-1;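 note: growth inhibition of cultured human TALL-1 cells, read out by a cell viability assay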
# Description: SANGER: Inhibition of human TALL-1 cell growth in a cell viability assay.
# 639-V = experiment: cells; format: functional, cell-based; settings: Homo sapiens;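 note: growth inhibition of 639-V cells, read out with a cell viability assay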
# Description: SANGER: Inhibition of human 639-V cell growth in a cell viability assay.
# 786-0 = experiment: cells; format: functional, cell-based; settings: Homo sapiens
# Description: SANGER: Inhibition of human 786-0 cell growth in a cell viability assay.
# 8305C = experiment: cells; format: functional, cell-based; settings: Homo sapiens
# Description: SANGER: Inhibition of human 8305C cell growth in a cell viability assay.
# A204 = experiment: cells; format: functional, cell-based; settings: Homo sapiens;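 note: growth inhibition of human A204 cells, read out with a cell viability assay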
# Description: SANGER: Inhibition of human A204 cell growth in a cell viability assay.
# A-431 = experiment: cells; format: functional, cell-based; settings: Homo sapiens;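 note: growth inhibition of A-431 cells, determined with a cell viability read-out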
# Description: SANGER: Inhibition of human A431 cell growth in a cell viability assay.
# ABC-1 = experiment: cells; format: functional, cell-based; settings: Homo sapiens;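 note: growth inhibition of human ABC-1 cells, read out by a cell viability assay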
# Description: SANGER: Inhibition of human ABC-1 cell growth in a cell viability assay.
# BC1 cell line = experiment: SANGER: Inhibition of human BC-1 cell growth in a cell viability assay.; format: functional, cell-based; settings: Homo sapiens, BC1
# BEN = experiment: cells; format: functional, cell-based; settings: Homo sapiens;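 note: growth inhibition of the BEN cell line, read out with a cell viability assay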
# Description: SANGER: Inhibition of human BEN cell growth in a cell viability assay.
# BOKU = experiment: cells; format: functional, cell-based; settings: Homo sapiens;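 note: growth inhibition of the human BOKU cell line, read out by a cell viability assay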
# Description: SANGER: Inhibition of human BOKU cell growth in a cell viability assay.
# C32 = experiment: cells; format: functional, cell-based; settings: Homo sapiens;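 note: cell viability assay, with IC50 reflecting inhibition of C32 cell growth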
# Description: SANGER: Inhibition of human C32 cell growth in a cell viability assay.
# TE-441-T = experiment: cells; format: functional, cell-based, Homo sapiens; settings: Homo sapiens, TE-441-T
# Description: SANGER: Inhibition of human TE-441-T cell growth in a cell viability assay.
# TYK-nu = experiment: cells; format: functional, cell-based; settings: Homo sapiens;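 note: growth inhibition of human TYK-nu cells, read out by a cell viability assay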
# Description: SANGER: Inhibition of human TYK-nu cell growth in a cell viability assay.
# UO-31 = experiment: cells; format: functional, cell-based; settings: Homo sapiens
# Description: SANGER: Inhibition of human U031 cell growth in a cell viability assay.
# UACC-893 = experiment: cells; format: functional, cell-based; settings: Homo sapiens
# Description: SANGER: Inhibition of human UACC-893 cell growth in a cell viability assay.
# VM-CUB-1 = experiment: cells; format: functional, cell-based; settings: Homo sapiens;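 note: cell viability assay measuring growth inhibition of the human VM-CUB-1 cell line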
# Description: SANGER: Inhibition of human VM-CUB-1 cell growth in a cell viability assay.
# YT = experiment: cells; format: functional, cell-based, Homo sapiens; settings: Homo sapiens, YT
# Description: SANGER: Inhibition of human YT cell growth in a cell viability assay.
compound,measurement,setting,value
COC(=O)[C@H](CCSC)NC(=O)c1ccc(NC[C@@H](N)CS)cc1-c1ccccc1,IC50,COLO-741,> 1020 nM
same,IC50,CP50-MEL-B,> 1020 nM
same,IC50,Calu-3,> 1020 nM
same,IC50,DMS-153,> 1020 nM
same,IC50,Detroit 562,> 1020 nM
same,IC50,EFO-21,> 1020 nM
same,IC50,G-361,> 1020 nM
same,IC50,HCC1954,> 1020 nM
same,IC50,HOP-92,> 1020 nM
same,IC50,HuTu80,> 1020 nM
same,IC50,HuO-3N1,> 1020 nM
same,IC50,HuP-T3,> 1020 nM
same,IC50,KARPAS-422,> 1020 nM
same,IC50,KMS-12-PE,> 1020 nM
same,IC50,KYSE-410,> 1020 nM
same,IC50,LN-405,> 1020 nM
same,IC50,MC-IXC,> 1020 nM
same,IC50,MDA-MB-157,> 1020 nM
same,IC50,ME-180,> 1020 nM
same,IC50,MEL-HO,> 1020 nM
same,IC50,MEL-JUSO,184 nM
same,IC50,MHH-CALL-2,> 1020 nM
same,IC50,MKN-28,> 1020 nM
same,IC50,MKN-7,> 1020 nM
same,IC50,MRK-nu-1,> 1020 nM
same,IC50,NCI-H2009,> 1020 nM
same,IC50,NCI-H2405,> 1020 nM
same,IC50,NCI-H748,> 1020 nM
same,IC50,NCI-H810,> 1020 nM
same,IC50,P31-FUJ,> 1020 nM
same,IC50,PANC-03-27,> 1020 nM
same,IC50,Panc1005,> 1020 nM
same,IC50,RO82-W-1,> 1020 nM
same,IC50,RPMI-6666,> 1020 nM
same,IC50,SBC-5,> 1020 nM
same,IC50,SCC-4,> 1020 nM
same,IC50,SN12C,> 1020 nM
same,IC50,SW48,> 1020 nM
same,IC50,SiHa,> 1020 nM
same,IC50,T-24,> 1020 nM
same,IC50,TALL-1,> 1020 nM
same,IC50,639-V,> 1020 nM
same,IC50,786-0,> 1020 nM
same,IC50,8305C,> 1020 nM
same,IC50,A204,> 1020 nM
same,IC50,A-431,> 1020 nM
same,IC50,ABC-1,> 1020 nM
same,IC50,BC1 cell line,> 1020 nM
same,IC50,BEN,> 1020 nM
same,IC50,BOKU,> 1020 nM
same,IC50,C32,> 1020 nM
same,IC50,TE-441-T,> 1020 nM
same,IC50,TYK-nu,> 1020 nM
same,IC50,UO-31,> 1020 nM
same,IC50,UACC-893,> 1020 nM
same,IC50,VM-CUB-1,> 1020 nM
same,IC50,YT,> 1020 nM
O=S(=O)(O)c1ccc2cc(/N=N/c3cc(S(=O)(=O)O)c4cccnc4c3O)ccc2c1,IC50,COLO-741,> 16000 nM
same,IC50,CP50-MEL-B,> 16000 nM
same,IC50,Calu-3,> 16000 nM
same,IC50,DMS-153,> 16000 nM
same,IC50,Detroit 562,> 16000 nM
same,IC50,EFO-21,> 16000 nM
same,IC50,G-361,> 16000 nM
same,IC50,HCC1954,> 16000 nM
same,IC50,HOP-92,> 16000 nM
same,IC50,HuTu80,> 16000 nM
same,IC50,HuO-3N1,> 16000 nM
same,IC50,HuP-T3,> 16000 nM
same,IC50,KARPAS-422,> 16000 nM
same,IC50,KMS-12-PE,> 16000 nM
same,IC50,KYSE-410,> 16000 nM
same,IC50,LN-405,> 16000 nM
same,IC50,MC-IXC,> 16000 nM
same,IC50,MDA-MB-157,> 16000 nM
same,IC50,ME-180,> 16000 nM
same,IC50,MEL-HO,> 16000 nM
same,IC50,MEL-JUSO,> 16000 nM
same,IC50,MHH-CALL-2,> 16000 nM
same,IC50,MKN-28,> 16000 nM
same,IC50,MKN-7,> 16000 nM
same,IC50,MRK-nu-1,> 16000 nM
same,IC50,NCI-H2009,> 16000 nM
same,IC50,NCI-H2405,> 16000 nM
same,IC50,NCI-H748,> 16000 nM
same,IC50,NCI-H810,> 16000 nM
same,IC50,P31-FUJ,> 16000 nM
same,IC50,PANC-03-27,> 16000 nM
same,IC50,Panc1005,> 16000 nM
same,IC50,RO82-W-1,> 16000 nM
same,IC50,RPMI-6666,> 16000 nM
same,IC50,SBC-5,> 16000 nM
same,IC50,SCC-4,> 16000 nM
same,IC50,SN12C,> 16000 nM
same,IC50,SW48,> 16000 nM
same,IC50,SiHa,> 16000 nM
same,IC50,T-24,> 16000 nM
same,IC50,TALL-1,> 16000 nM
same,IC50,639-V,> 16000 nM
same,IC50,786-0,5590 nM
same,IC50,8305C,> 16000 nM
same,IC50,A204,> 16000 nM
same,IC50,A-431,> 16000 nM
same,IC50,ABC-1,> 16000 nM
same,IC50,BC1 cell line,> 16000 nM
same,IC50,BEN,> 16000 nM
same,IC50,BOKU,> 16000 nM
same,IC50,C32,> 16000 nM
same,IC50,TE-441-T,> 16000 nM
same,IC50,TYK-nu,> 16000 nM
same,IC50,UO-31,13600 nM
same,IC50,UACC-893,> 16000 nM
same,IC50,VM-CUB-1,> 16000 nM
same,IC50,YT,> 16000 nM
Cc1ccc(C(=O)Nc2ccc(CN3CCN(C)CC3)c(C(F)(F)F)c2)cc1C#Cc1cnc2cccnn12 [PONATINIB],IC50,COLO-741,> 512 nM
same,IC50,CP50-MEL-B,> 512 nM
same,IC50,Calu-3,> 512 nM
same,IC50,DMS-153,> 512 nM
same,IC50,Detroit 562,> 512 nM
same,IC50,EFO-21,304 nM
same,IC50,G-361,> 512 nM
same,IC50,HCC1954,> 512 nM
same,IC50,HOP-92,> 512 nM
same,IC50,HuTu80,> 512 nM
same,IC50,HuO-3N1,> 512 nM
same,IC50,HuP-T3,> 512 nM
same,IC50,KARPAS-422,> 512 nM
same,IC50,KMS-12-PE,> 512 nM
same,IC50,KYSE-410,> 512 nM
same,IC50,LN-405,> 512 nM
same,IC50,MC-IXC,> 512 nM
same,IC50,MDA-MB-157,> 512 nM
same,IC50,ME-180,> 512 nM
same,IC50,MEL-HO,> 512 nM
same,IC50,MEL-JUSO,> 512 nM
same,IC50,MHH-CALL-2,> 512 nM
same,IC50,MKN-28,> 512 nM
same,IC50,MKN-7,> 512 nM
same,IC50,MRK-nu-1,> 512 nM
same,IC50,NCI-H2009,> 512 nM
same,IC50,NCI-H2405,> 512 nM
same,IC50,NCI-H748,> 512 nM
same,IC50,NCI-H810,> 512 nM
same,IC50,P31-FUJ,> 512 nM
same,IC50,PANC-03-27,> 512 nM
same,IC50,Panc1005,> 512 nM
same,IC50,RO82-W-1,> 512 nM
same,IC50,RPMI-6666,> 512 nM
same,IC50,SBC-5,> 512 nM
same,IC50,SCC-4,> 512 nM
same,IC50,SN12C,> 512 nM
same,IC50,SW48,> 512 nM
same,IC50,SiHa,> 512 nM
same,IC50,T-24,> 512 nM
same,IC50,TALL-1,> 512 nM
same,IC50,639-V,> 512 nM
same,IC50,786-0,262 nM
same,IC50,8305C,398 nM
same,IC50,A204,12.2 nM
same,IC50,A-431,> 512 nM
same,IC50,ABC-1,> 512 nM
same,IC50,BC1 cell line,> 512 nM
same,IC50,BEN,> 512 nM
same,IC50,BOKU,> 512 nM
same,IC50,C32,> 512 nM
same,IC50,TE-441-T,> 512 nM
same,IC50,TYK-nu,> 512 nM
same,IC50,UO-31,> 512 nM
same,IC50,UACC-893,> 512 nM
same,IC50,VM-CUB-1,> 512 nM
same,IC50,YT,270 nM
